Measured values reported in BigSolDB 2.1.

CC(=O)N1CCN(c2ccc(OC[C@@H]3CO[C@@](Cn4ccnc4)(c4ccc(Cl)cc4Cl)O3)cc2)CC1 (racemic)
Details | solubility (mole fraction)
in PEG-200, 298.2 K | 0.00611
in PEG-200, 303.2 K | 0.00718
in PEG-200, 308.2 K | 0.00908
in PEG-200, 313.2 K | 0.0118
in PEG-200, 318.2 K | 0.0144

in water
Details | solubility (mole fraction)
298.2 K | 4e-07
303.2 K | 5e-07
308.2 K | 5e-07
313.2 K | 7e-07
318.2 K | 9e-07
